This passage reports IC50 and viability, T/C results from PubChem BioAssay AID1963866 (Molecular Pharmacology Branch, DTP, NCI, 2024).

pIC50: −log10 of the molar value. Values joined by “and” are separate entries in the source; they are usually repeats but may differ in a detail not shown here. Identical values can stand only once.

In this assay the test system is PDC KRAS tumor spheroids with HUVEC/MSC, viability. The assay is described as follows: Anticancer human tumor 349418-098-R-PDC patient-derived lung adenocarcinoma cell line growth inhibition [KRAS2]. Conditions: for viability, T/C: stronger effect = lower value. An outline of the steps:
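Combination screen of spheroid viability in tumor-cell co-cultures with endothelial (HUVEC) and mesenchymal stem cell stroma. Each agent was tested in half-log dilutions, topping at clinical Cmax or at 10 microM without a known Cmax.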

[1] abbreviates: curve of first compound, second compound 0.1 µM.
Where [2] appears, read: curve of first compound, second compound 0.316 µM.
[3] abbreviates: curve of first compound, second compound 1 µM.
[4] abbreviates: curve of first compound, second compound 3.16 µM.
Setting [5] is: second compound 0.1 µM, first compound 0.0316 µM.
Setting [6] is: second compound 0.1 µM, first compound 0.1 µM.
The mark [7] stands for this setting: second compound 0.316 µM, first compound 0.0316 µM.
The mark [8] stands for this setting: second compound 0.316 µM, first compound 0.1 µM.
[9] abbreviates: second compound 1 µM, first compound 0.0316 µM.
Where [10] appears, read: second compound 1 µM, first compound 0.1 µM.
The mark [11] stands for this setting: second compound 3.16 µM, first compound 0.0316 µM.
The mark [12] stands for this setting: second compound 3.16 µM, first compound 0.1 µM.
[13] abbreviates: curve of first compound, second compound 10 µM.
Setting [14] is: second compound 0.1 µM, first compound 0.000316 µM.
[15] abbreviates: second compound 0.1 µM, first compound 0.001 µM.
[16] abbreviates: second compound 0.1 µM, first compound 0.00316 µM.
Where [17] appears, read: second compound 0.1 µM, first compound 0.01 µM.
Where [18] appears, read: second compound 0.316 µM, first compound 0.000316 µM.
Where [19] appears, read: second compound 0.316 µM, first compound 0.001 µM.
[20] abbreviates: second compound 0.316 µM, first compound 0.00316 µM.
Setting [21] is: second compound 0.316 µM, first compound 0.01 µM.
[22] abbreviates: second compound 1 µM, first compound 0.000316 µM.
Setting [23] is: second compound 1 µM, first compound 0.001 µM.
[24] abbreviates: second compound 1 µM, first compound 0.00316 µM.
Setting [25] is: second compound 1 µM, first compound 0.01 µM.
Where [26] appears, read: second compound 3.16 µM, first compound 0.000316 µM.
Where [27] appears, read: second compound 3.16 µM, first compound 0.001 µM.
The mark [28] stands for this setting: second compound 3.16 µM, first compound 0.00316 µM.
The mark [29] stands for this setting: second compound 3.16 µM, first compound 0.01 µM.
[30] abbreviates: second compound 10 µM, first compound 0.000316 µM.
The mark [31] stands for this setting: second compound 10 µM, first compound 0.001 µM.
The mark [32] stands for this setting: second compound 10 µM, first compound 0.00316 µM.
Setting [33] is: second compound 10 µM, first compound 0.01 µM.
Setting [34] is: second compound 10 µM, first compound 0.0316 µM.
[35] abbreviates: second compound 10 µM, first compound 0.1 µM.
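Also: spheroids exposed to compounds for seven days before readout.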

Usually pIC50 stands for −log10 of the IC50, conventionally taken in molar units. One may read the viability, T/C as the ratio of treated to control. Regarding `CC1(C)CCC(CN2CCN(c3ccc(C(=O)NS(=O)(=O)c4ccc(NCC5CCOCC5)c([N+](=O)[O-])c4)c(Oc4cnc5[nH]ccc5c4)c3)CC2)=C(c2ccc(Cl)cc2)C1` + C=CC(=O)N1CCN(c2nc(OCC3CCCN3C)nc3c2CCN(c2cccc4cccc(C)c24)C3)CC1CC#N, the pIC50 (curve of first compound, second compound 0.0316 µM) is 5.77; the negative-log IC50 (pIC50) under setting [1] was 5.87; the pIC50 under setting [2] was 5.82; the negative logarithm of the IC50 (pIC50) under setting [3] was 5.93; the pIC50 under setting [4] was greater than 7.50. In addition, the viability, T/C was 97.5% (second compound 0.0316 µM, first compound 0.0316 µM); 100% (second compound 0.0316 µM, first compound 0.1 µM); 89.4% (second compound 0.0316 µM, first compound 0.316 µM); 80% (second compound 0.0316 µM, first compound 1 µM); 13.8% (second compound 0.0316 µM, first compound 3.16 µM); 4.29% (second compound 0.0316 µM, first compound 10 µM). Further, the viability, T/C by setting is: under setting [5], 96.2%; under setting [6], 94.8%; (second compound 0.1 µM, first compound 0.316 µM) 76.5%; (second compound 0.1 µM, first compound 1 µM) 66.2%; (second compound 0.1 µM, first compound 3.16 µM) 13.6%; (second compound 0.1 µM, first compound 10 µM) 4.13%. Moreover, the viability, T/C was 92.6% under setting [7]; 87.5% under setting [8]; 77.1% (second compound 0.316 µM, first compound 0.316 µM); 72.1% (second compound 0.316 µM, first compound 1 µM); 10.9% (second compound 0.316 µM, first compound 3.16 µM); 3.73% (second compound 0.316 µM, first compound 10 µM). The viability, T/C runs as follows: under setting [9], 76.8%; under setting [10], 75%; (second compound 1 µM, first compound 0.316 µM) 68.2%; (second compound 1 µM, first compound 1 µM) 57.7%; (second compound 1 µM, first compound 3.16 µM) 4.26%; (second compound 1 µM, first compound 10 µM) 1.75%. Also, the viability, T/C by setting is: under setting [11], 0.15%; under setting [12], 0.15%; (second compound 3.16 µM, first compound 0.316 µM) 0.14%; (second compound 3.16 µM, first compound 1 µM) 0.2%; (second compound 3.16 µM, first compound 3.16 µM) 0.09%; (second compound 3.16 µM, first compound 10 µM) 0.11%.
Regarding `CC1OCC2(CCN(c3cnc(Sc4ccnc(N)c4Cl)c(N)n3)CC2)C1N` (configuration not stated), the viability, T/C (compound 0.0316 µM) was 102% (2×) and 80.3%. For the same compound, the negative-log IC50 (pIC50) is 5.00 and < 5.00 (compound alone, run of 07/12/2021); less than 5.00 (compound alone, run of 07/19/2021); less than 5.00 (compound alone, run of 07/26/2021); less than 5.00 (curve of compound).
Take `CN(C)C/C=C/C(=O)Nc1cc2c(Nc3ccc(F)c(Cl)c3)ncnc2cc1O[C@H]1CCOC1` + CC1OCC2(CCN(c3cnc(Sc4ccnc(N)c4Cl)c(N)n3)CC2)C1N: the pIC50 is less than 7.00 under setting [1]; less than 7.00 under setting [2]; less than 7.00 under setting [3]; less than 7.00 under setting [4]; less than 7.00 under setting [13]. Also, the viability, T/C under setting [14] was 84.1%; the viability, T/C under setting [15] was 95.7%; the viability, T/C under setting [16] was 105%; the viability, T/C under setting [17] is 114%; the viability, T/C under setting [5] is 119%; the viability, T/C under setting [6] was 103%. Further, the viability, T/C reads like this: under setting [18], 106%; under setting [19], 105%; under setting [20], 109%; under setting [21], 110%; under setting [7], 117%; under setting [8], 115%. Moreover, the viability, T/C under setting [22] was 92.3%; the viability, T/C under setting [23] is 111%; the viability, T/C under setting [24] was 97.4%; the viability, T/C under setting [25] is 107%; the viability, T/C under setting [9] was 116%; the viability, T/C under setting [10] was 105%. For the same compound, the viability, T/C reads like this: under setting [26], 99.1%; under setting [27], 107%; under setting [28], 105%; under setting [29], 102%; under setting [11], 96%; under setting [12], 88.1%. In addition, the viability, T/C is, setting by setting: under setting [30], 99.2%; under setting [31], 117%; under setting [32], 108%; under setting [33], 110%; under setting [34], 104%; under setting [35], 95.8%.
One may read the IC50 as the concentration at which inhibition is half-maximal. As for `CC(C)NCC(C(=O)N1CCN(c2ncnc3c2C(C)CC3O)CC1)c1ccc(Cl)cc1` (configuration not stated), the viability, T/C is 93.4% [middle of 5 runs] (compound 0.0316 µM); 77.8% [middle of 5 runs] (compound 0.1 µM); 49.3% [middle of 5 runs] (compound 0.316 µM); 27.4% [middle of 5 runs] (compound 1 µM); 17.1% [middle of 5 runs] (compound 3.16 µM); 7.52% [middle of 5 runs] (compound 10 µM). Besides, the half-inhibitory concentration (IC50) (curve of compound) is 334 nM [middle of 5 runs].
With `CC(C)n1nc(-c2ccc3oc(N)nc3c2)c2c(N)ncnc21` + CNCc1ccccc1-c1csc(C(C)Nc2nc(C)nc3cc(OC)c(OC)cc23)c1, the pIC50 is, setting by setting: under setting [1], 9.01; under setting [2], 9.05; under setting [3], 9.25; under setting [4], greater than 9.50; under setting [13], greater than 9.50. For the same compound, the viability, T/C runs as follows: under setting [14], 103%; under setting [15], 49.1%; under setting [16], 20.9%; under setting [17], 8.09%; under setting [5], 8.36%; under setting [6], 7.55%. The viability, T/C under setting [18] was 106%; the viability, T/C under setting [19] is 43.2%; the viability, T/C under setting [20] was 13.3%; the viability, T/C under setting [21] is 8.02%; the viability, T/C under setting [7] was 7.42%; the viability, T/C under setting [8] was 6.91%. For the same compound, the viability, T/C by setting is: under setting [22], 73.1%; under setting [23], 26.3%; under setting [24], 9.14%; under setting [25], 7.12%; under setting [9], 5.59%; under setting [10], 6.98%. The viability, T/C by setting is: under setting [26], 0.08%; under setting [27], 0.18%; under setting [28], 0.03%; under setting [29], 0.06%; under setting [11], 0.06%; under setting [12], 0.13%. Besides, the viability, T/C runs as follows: under setting [30], 0.08%; under setting [31], 0.08%; under setting [32], 0.07%; under setting [33], 0.09%; under setting [34], 0.09%; under setting [35], 0.15%.
